Holding throughout (assay type): functional
Assay [1] concerns Oryctolagus cuniculus. The assay is described as follows: Tested for the fall of intraocular pressure of glaucomatous rabbits, after treatment with one drop (50 uL) 2% solution at a pH 7.0, directly into the eye after 0 minutes of administration.
Assay [2] deals with Oryctolagus cuniculus. Briefly: Tested for the fall of intraocular pressure of glaucomatous rabbits, after treatment with one drop (50 uL) 2% solution at a pH 7.0, directly into the eye after 30 minutes of administration.
Assay [3] relates to Oryctolagus cuniculus. The assay is described as follows: Tested for the fall of intraocular pressure of glaucomatous rabbits, after treatment with one drop (50 uL) 2% solution at a pH 7.0, directly into the eye after 60 minutes of administration.
In assay [4] the test system is Oryctolagus cuniculus. The assay is described as follows: Tested for the fall of intraocular pressure of glaucomatous rabbits, after treatment with one drop (50 uL) 2% solution at a pH 7.0, directly into the eye after 90 minutes of administration.
Assay [5] deals with Oryctolagus cuniculus. Briefly: Tested for the fall of intraocular pressure of glaucomatous rabbits, after treatment with one drop (50 uL) 2% solution at a pH 6.5, directly into the eye after 90 minutes of administration.
Assay [6] has as its system Oryctolagus cuniculus. Briefly: Tested for the fall of intraocular pressure of glaucomatous rabbits, after treatment with one drop (50 uL) 2% solution at a pH 6.5, directly into the eye after 30 minutes of administration.
For assay [7], the system named is Oryctolagus cuniculus. Briefly: Tested for the fall of intraocular pressure of glaucomatous rabbits, after treatment with one drop (50 uL) 2% solution at a pH 6.5, directly into the eye after 0 minutes of administration.
The test system of assay [8] is Oryctolagus cuniculus. The assay is described as follows: Tested for the fall of intraocular pressure of glaucomatous rabbits, after treatment with one drop (50 uL) 2% solution at a pH 6.5, directly into the eye after 60 minutes of administration.

For the molecule `NCC(=O)NC(=S)NCCc1ccc(S(N)(=O)=O)cc1.[Cl-].[Na+]`, the Activity came to 0 mmHg in the assay on Oryctolagus cuniculus [1], 3 mmHg in the assay on Oryctolagus cuniculus [2], 5.9 mmHg in the assay with Oryctolagus cuniculus [3] and 5.5 mmHg in the assay with Oryctolagus cuniculus [4].
The corresponding values for `NC(=O)CC(N)C(=O)NC(=S)NCCc1ccc(S(N)(=O)=O)cc1.[Cl-].[Na+]` (stereo unspecified) are 0 mmHg, 10 mmHg, 13 mmHg and 15.5 mmHg.
The corresponding values for `NC(Cc1ccccc1)C(=O)NC(=S)NCCc1ccc(S(N)(=O)=O)cc1.[Cl-].[Na+]` (stereo unspecified) are 0 mmHg, 4 mmHg, 6.1 mmHg and 6.4 mmHg.
For `Cl.NS(=O)(=O)c1ccc(CC/N=C(\S)NNCCN2CCOCC2)cc1`, the Activity in the assay with Oryctolagus cuniculus [5] amounted to 5.9 mmHg; in the assay with Oryctolagus cuniculus [6], 6.5 mmHg; in the assay on Oryctolagus cuniculus [7], 0 mmHg; in the assay with Oryctolagus cuniculus [8], 6.9 mmHg.

The values are drawn from ChEMBL document CHEMBL1142789, “Carbonic anhydrase inhibitors: design of thioureido sulfonamides with potent isozyme II and XII inhibitory properties and intraocular pressure lowering activity in a rabbit model of glaucoma” (Bioorg Med Chem Lett, 2005).
